# Measured values from paper PMC10905675, “INX-315, a Selective CDK2 Inhibitor, Induces Cell Cycle Arrest and Senescence in Solid Tumors” (Cancer Discovery, 2023).
# What was measured:
# Assay in all cases: SelectScreen ZLYTE
# Type in all cases: biochemical
# Details in all cases: INX-0315 at 100nM
# NEK6 = biological target: T1, NEK6 (Homo sapiens, UniProt Q9HC98)
# T1 construct: purchased Thermo Fisher Scientific SelectScreen (plus Nanosyn / Reaction Biology for CDK/cyclin lines)
# Outline: (§1)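 The compound is dosed at 100 nmol/L in 1% DMSO for the initial pass. Dose–response work then covers ten points between 1 µmol/L and 0.0495 nmol/L, with assay conditions as predefined by the service.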
# RPS6KA4 (MSK2) = biological target: T2, RPS6KA4 (MSK2) (Homo sapiens, UniProt O75676)
# T2 construct: purchased Thermo Fisher Scientific SelectScreen (plus Nanosyn / Reaction Biology for CDK/cyclin lines)
# Outline: as §1
# IGF1R = biological target: T3, IGF1R (Homo sapiens, UniProt P08069)
# T3 construct: purchased Thermo Fisher Scientific SelectScreen (plus Nanosyn / Reaction Biology for CDK/cyclin lines)
# Outline: as §1
# LYN B = biological target: T4, LYN B (Homo sapiens, UniProt P07948)
# T4 construct: purchased Thermo Fisher Scientific SelectScreen (plus Nanosyn / Reaction Biology for CDK/cyclin lines)
# Outline: as §1
# DYRK4 = biological target: T5, DYRK4 (Homo sapiens, UniProt Q9NR20)
# T5 construct: purchased Thermo Fisher Scientific SelectScreen (plus Nanosyn / Reaction Biology for CDK/cyclin lines)
# Outline: as §1
# MAPK12 (p38 gamma) = biological target: T6, MAPK12 (p38 gamma) (Homo sapiens, UniProt P53778)
# T6 construct: purchased Thermo Fisher Scientific SelectScreen (plus Nanosyn / Reaction Biology for CDK/cyclin lines)
# T6 sequence (P53778 whole entry): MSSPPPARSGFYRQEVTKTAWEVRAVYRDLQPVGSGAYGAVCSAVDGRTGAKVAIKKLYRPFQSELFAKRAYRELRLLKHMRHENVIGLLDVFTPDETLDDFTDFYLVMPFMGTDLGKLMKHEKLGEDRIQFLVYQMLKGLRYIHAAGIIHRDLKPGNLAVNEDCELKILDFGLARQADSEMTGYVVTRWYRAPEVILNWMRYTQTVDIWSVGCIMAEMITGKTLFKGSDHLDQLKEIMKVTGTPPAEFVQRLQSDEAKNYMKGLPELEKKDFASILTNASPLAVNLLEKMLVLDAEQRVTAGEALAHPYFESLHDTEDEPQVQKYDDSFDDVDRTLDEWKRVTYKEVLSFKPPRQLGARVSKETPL
# Outline: as §1
# RPS6KA3 (RSK2) = biological target: T7, RPS6KA3 (RSK2) (Homo sapiens, UniProt P51812)
# T7 construct: purchased Thermo Fisher Scientific SelectScreen (plus Nanosyn / Reaction Biology for CDK/cyclin lines)
# Outline: as §1
# EGFR (ErbB1) G719S = biological target: T8, EGFR (ErbB1) G719S (Homo sapiens, UniProt P00533, G719S)
# T8 construct: purchased Thermo Fisher Scientific SelectScreen (plus Nanosyn / Reaction Biology for CDK/cyclin lines)
# Outline: as §1
# PLK3 = biological target: T9, PLK3 (Homo sapiens, UniProt Q9H4B4)
# T9 construct: purchased Thermo Fisher Scientific SelectScreen (plus Nanosyn / Reaction Biology for CDK/cyclin lines)
# Outline: as §1
# AMPK (A2/B1/G2) = biological target: T10, AMPK (A2/B1/G2) (Homo sapiens, UniProt P54646)
# T10 construct: purchased Thermo Fisher Scientific SelectScreen (plus Nanosyn / Reaction Biology for CDK/cyclin lines)
# Outline: as §1
# CDC42 BPA (MRCKA) = biological target: T11, CDC42 BPA (MRCKA) (Homo sapiens, UniProt Q5VT25)
# T11 construct: purchased Thermo Fisher Scientific SelectScreen (plus Nanosyn / Reaction Biology for CDK/cyclin lines)
# T11 sequence (Q5VT25 whole entry): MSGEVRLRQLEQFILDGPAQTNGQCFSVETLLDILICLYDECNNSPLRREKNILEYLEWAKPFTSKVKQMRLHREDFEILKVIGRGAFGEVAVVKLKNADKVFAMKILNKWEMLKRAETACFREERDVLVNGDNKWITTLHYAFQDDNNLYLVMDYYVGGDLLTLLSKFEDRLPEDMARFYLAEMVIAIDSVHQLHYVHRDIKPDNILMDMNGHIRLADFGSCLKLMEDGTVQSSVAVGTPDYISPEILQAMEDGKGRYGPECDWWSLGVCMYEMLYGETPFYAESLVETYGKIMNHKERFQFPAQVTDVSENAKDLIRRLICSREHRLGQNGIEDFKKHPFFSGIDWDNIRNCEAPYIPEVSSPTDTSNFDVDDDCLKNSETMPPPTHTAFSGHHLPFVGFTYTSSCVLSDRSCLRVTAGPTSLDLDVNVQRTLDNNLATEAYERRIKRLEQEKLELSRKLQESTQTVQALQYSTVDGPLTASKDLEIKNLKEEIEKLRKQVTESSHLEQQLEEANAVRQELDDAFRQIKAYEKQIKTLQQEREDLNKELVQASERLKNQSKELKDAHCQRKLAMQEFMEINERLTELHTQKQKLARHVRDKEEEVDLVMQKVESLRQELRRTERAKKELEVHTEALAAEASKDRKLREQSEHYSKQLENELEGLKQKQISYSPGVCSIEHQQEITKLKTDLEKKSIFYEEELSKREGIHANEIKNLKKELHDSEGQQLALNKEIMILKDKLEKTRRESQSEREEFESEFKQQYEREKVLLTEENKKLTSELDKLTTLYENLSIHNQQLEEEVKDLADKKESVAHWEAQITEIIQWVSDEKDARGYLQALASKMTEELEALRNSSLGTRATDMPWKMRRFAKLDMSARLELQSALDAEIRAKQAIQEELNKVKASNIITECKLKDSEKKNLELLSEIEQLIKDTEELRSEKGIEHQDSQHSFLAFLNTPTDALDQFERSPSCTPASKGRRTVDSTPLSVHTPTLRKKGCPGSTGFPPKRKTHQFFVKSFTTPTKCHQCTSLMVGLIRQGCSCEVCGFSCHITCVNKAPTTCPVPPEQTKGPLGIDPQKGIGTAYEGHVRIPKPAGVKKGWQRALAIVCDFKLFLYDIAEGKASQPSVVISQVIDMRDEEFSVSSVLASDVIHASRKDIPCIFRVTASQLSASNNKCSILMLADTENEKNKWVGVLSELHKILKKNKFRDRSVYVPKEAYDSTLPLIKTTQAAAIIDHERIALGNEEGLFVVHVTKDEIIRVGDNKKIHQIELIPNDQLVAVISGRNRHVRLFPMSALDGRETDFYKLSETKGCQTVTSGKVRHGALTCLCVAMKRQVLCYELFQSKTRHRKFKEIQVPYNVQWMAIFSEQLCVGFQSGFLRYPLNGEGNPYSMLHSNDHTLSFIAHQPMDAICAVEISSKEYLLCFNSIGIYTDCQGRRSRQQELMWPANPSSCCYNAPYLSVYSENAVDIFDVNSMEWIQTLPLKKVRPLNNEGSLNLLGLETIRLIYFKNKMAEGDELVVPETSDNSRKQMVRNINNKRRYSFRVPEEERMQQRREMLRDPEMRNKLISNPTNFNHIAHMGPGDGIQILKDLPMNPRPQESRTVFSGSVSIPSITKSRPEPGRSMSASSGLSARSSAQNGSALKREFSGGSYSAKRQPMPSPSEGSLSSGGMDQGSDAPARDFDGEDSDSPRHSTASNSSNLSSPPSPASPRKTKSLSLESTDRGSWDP
# Outline: as §1
# EGFR (ErbB1) T790M = biological target: T12, EGFR (ErbB1) T790M (Homo sapiens, UniProt P00533, T790M)
# T12 construct: purchased Thermo Fisher Scientific SelectScreen (plus Nanosyn / Reaction Biology for CDK/cyclin lines)
# Outline: as §1
# GSK3B (GSK3 beta) = biological target: T13, GSK3B (GSK3 beta) (Homo sapiens, UniProt P49841)
# T13 construct: purchased Thermo Fisher Scientific SelectScreen (plus Nanosyn / Reaction Biology for CDK/cyclin lines)
# Outline: as §1
# EEF2K = biological target: T14, EEF2K (Homo sapiens, UniProt O00418)
# T14 construct: purchased Thermo Fisher Scientific SelectScreen (plus Nanosyn / Reaction Biology for CDK/cyclin lines)
# Outline: as §1
# STK22B (TSSK2) = biological target: T15, STK22B (TSSK2) (Homo sapiens, UniProt Q96PF2)
# T15 construct: purchased Thermo Fisher Scientific SelectScreen (plus Nanosyn / Reaction Biology for CDK/cyclin lines)
# T15 sequence (Q96PF2 whole entry): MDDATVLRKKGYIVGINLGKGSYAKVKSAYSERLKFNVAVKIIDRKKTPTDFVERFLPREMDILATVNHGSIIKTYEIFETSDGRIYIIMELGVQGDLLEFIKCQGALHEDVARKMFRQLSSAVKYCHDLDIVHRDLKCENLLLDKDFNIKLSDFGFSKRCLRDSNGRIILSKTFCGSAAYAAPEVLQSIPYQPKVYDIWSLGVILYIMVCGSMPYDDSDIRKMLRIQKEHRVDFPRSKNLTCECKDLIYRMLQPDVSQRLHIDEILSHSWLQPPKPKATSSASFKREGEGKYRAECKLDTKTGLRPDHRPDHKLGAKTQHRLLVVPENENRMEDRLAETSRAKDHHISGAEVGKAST
# Outline: as §1
# PRKD2 (PKD2) = biological target: T16, PRKD2 (PKD2) (Homo sapiens, UniProt Q9BZL6)
# T16 construct: purchased Thermo Fisher Scientific SelectScreen (plus Nanosyn / Reaction Biology for CDK/cyclin lines)
# Outline: as §1
# PEAK1 = biological target: T17, PEAK1 (Homo sapiens, UniProt Q9H792)
# T17 construct: purchased Thermo Fisher Scientific SelectScreen (plus Nanosyn / Reaction Biology for CDK/cyclin lines)
# Outline: as §1
# LYN A = biological target: T18, LYN A (Homo sapiens, UniProt P07948)
# T18 construct: purchased Thermo Fisher Scientific SelectScreen (plus Nanosyn / Reaction Biology for CDK/cyclin lines)
# Outline: as §1
# DAPK3 (ZIPK) = biological target: T19, DAPK3 (ZIPK) (Homo sapiens, UniProt O43293)
# T19 construct: purchased Thermo Fisher Scientific SelectScreen (plus Nanosyn / Reaction Biology for CDK/cyclin lines)
# T19 sequence (O43293 whole entry): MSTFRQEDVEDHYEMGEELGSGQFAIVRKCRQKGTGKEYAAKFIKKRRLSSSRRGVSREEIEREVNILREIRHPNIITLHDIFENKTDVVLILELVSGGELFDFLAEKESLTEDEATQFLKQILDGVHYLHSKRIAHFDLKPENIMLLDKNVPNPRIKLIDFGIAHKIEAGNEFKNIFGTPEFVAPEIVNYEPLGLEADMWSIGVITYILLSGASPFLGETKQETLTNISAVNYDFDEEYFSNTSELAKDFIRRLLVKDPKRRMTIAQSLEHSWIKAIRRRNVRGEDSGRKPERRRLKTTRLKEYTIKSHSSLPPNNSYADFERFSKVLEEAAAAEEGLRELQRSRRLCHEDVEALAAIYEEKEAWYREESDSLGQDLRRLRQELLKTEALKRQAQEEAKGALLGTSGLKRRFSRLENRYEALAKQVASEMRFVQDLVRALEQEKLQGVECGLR
# Outline: as §1
# SGK (SGK1) = biological target: T20, SGK (SGK1) (Homo sapiens, UniProt O00141)
# T20 construct: purchased Thermo Fisher Scientific SelectScreen (plus Nanosyn / Reaction Biology for CDK/cyclin lines)
# Outline: as §1
# PTK2B (FAK2) = biological target: T21, PTK2B (FAK2) (Homo sapiens, UniProt Q14289)
# T21 construct: purchased Thermo Fisher Scientific SelectScreen (plus Nanosyn / Reaction Biology for CDK/cyclin lines)
# Outline: as §1
# RAF1 (cRAF) Y340D Y341D = biological target: T22, RAF1 (cRAF) Y340D Y341D (Homo sapiens, UniProt P04049, Y340D/Y341D)
# T22 construct: purchased Thermo Fisher Scientific SelectScreen (plus Nanosyn / Reaction Biology for CDK/cyclin lines)
# Outline: as §1
# CSNK1D (CK1 delta) = biological target: T23, CSNK1D (CK1 delta) (Homo sapiens, UniProt P48730)
# T23 construct: purchased Thermo Fisher Scientific SelectScreen (plus Nanosyn / Reaction Biology for CDK/cyclin lines)
# Outline: as §1
# GRK7 = biological target: T24, GRK7 (Homo sapiens, UniProt Q8WTQ7)
# T24 construct: purchased Thermo Fisher Scientific SelectScreen (plus Nanosyn / Reaction Biology for CDK/cyclin lines)
# T24 sequence (Q8WTQ7 whole entry): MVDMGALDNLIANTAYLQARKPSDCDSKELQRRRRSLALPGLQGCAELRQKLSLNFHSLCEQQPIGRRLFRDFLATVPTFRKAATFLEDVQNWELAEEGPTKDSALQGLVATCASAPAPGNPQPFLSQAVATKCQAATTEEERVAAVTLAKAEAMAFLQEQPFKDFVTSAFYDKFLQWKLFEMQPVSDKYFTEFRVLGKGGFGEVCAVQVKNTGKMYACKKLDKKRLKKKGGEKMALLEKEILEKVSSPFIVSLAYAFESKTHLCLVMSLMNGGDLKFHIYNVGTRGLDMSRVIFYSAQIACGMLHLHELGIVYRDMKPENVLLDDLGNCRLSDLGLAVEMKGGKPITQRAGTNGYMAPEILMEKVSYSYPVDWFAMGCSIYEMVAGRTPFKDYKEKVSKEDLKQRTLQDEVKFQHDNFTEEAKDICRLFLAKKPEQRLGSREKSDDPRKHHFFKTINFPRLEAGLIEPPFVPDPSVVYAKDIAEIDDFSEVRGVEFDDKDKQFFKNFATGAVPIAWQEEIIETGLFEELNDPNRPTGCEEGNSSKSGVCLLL
# Outline: as §1
# PRKG2 (PKG2) = biological target: T25, PRKG2 (PKG2) (Homo sapiens, UniProt Q13237)
# T25 construct: purchased Thermo Fisher Scientific SelectScreen (plus Nanosyn / Reaction Biology for CDK/cyclin lines)
# T25 sequence (Q13237 whole entry): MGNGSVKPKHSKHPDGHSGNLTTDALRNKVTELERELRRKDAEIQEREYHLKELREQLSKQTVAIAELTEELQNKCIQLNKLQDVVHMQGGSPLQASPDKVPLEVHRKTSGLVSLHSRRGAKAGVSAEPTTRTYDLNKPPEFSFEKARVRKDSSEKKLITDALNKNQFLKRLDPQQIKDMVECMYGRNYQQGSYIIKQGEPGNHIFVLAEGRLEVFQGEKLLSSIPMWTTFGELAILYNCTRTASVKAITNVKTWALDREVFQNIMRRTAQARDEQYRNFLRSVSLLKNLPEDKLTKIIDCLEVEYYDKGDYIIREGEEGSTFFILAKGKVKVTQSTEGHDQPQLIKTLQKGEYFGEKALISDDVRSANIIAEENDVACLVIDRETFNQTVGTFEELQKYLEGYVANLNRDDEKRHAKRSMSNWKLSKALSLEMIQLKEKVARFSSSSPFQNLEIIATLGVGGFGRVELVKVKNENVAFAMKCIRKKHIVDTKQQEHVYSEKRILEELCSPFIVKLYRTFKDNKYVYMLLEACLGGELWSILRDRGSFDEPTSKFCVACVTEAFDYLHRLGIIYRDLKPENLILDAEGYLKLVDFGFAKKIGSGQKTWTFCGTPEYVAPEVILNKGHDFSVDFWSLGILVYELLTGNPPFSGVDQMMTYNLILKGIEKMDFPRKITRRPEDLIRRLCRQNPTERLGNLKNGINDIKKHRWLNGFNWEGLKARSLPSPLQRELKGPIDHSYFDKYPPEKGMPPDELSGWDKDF
# Outline: as §1
# CSF1R (FMS) = biological target: T26, CSF1R (FMS) (Homo sapiens, UniProt P07333)
# T26 construct: purchased Thermo Fisher Scientific SelectScreen (plus Nanosyn / Reaction Biology for CDK/cyclin lines)
# Outline: as §1
# BLK = biological target: T27, BLK (Homo sapiens, UniProt P51451)
# T27 construct: purchased Thermo Fisher Scientific SelectScreen (plus Nanosyn / Reaction Biology for CDK/cyclin lines)
# Outline: as §1
# JAK2 JH1 JH2 V617F = biological target: T28, JAK2 JH1 JH2 V617F (Homo sapiens, UniProt O60674, V617F)
# T28 construct: JAK2 JH1 JH2 V617F; purchased Thermo Fisher Scientific SelectScreen (plus Nanosyn / Reaction Biology for CDK/cyclin lines)
# Outline: as §1
# RET S891A = biological target: T29, RET S891A (Homo sapiens, UniProt P07949, S891A)
# T29 construct: purchased Thermo Fisher Scientific SelectScreen (plus Nanosyn / Reaction Biology for CDK/cyclin lines)
# Outline: as §1
# CDC42 BPG (MRCKG) = biological target: T30, CDC42 BPG (MRCKG) (Homo sapiens, UniProt Q6DT37)
# T30 construct: purchased Thermo Fisher Scientific SelectScreen (plus Nanosyn / Reaction Biology for CDK/cyclin lines)
# Outline: as §1
# BMX = biological target: T31, BMX (Homo sapiens, UniProt P51813)
# T31 construct: purchased Thermo Fisher Scientific SelectScreen (plus Nanosyn / Reaction Biology for CDK/cyclin lines)
# Outline: as §1
# BRAF = biological target: T32, BRAF (Homo sapiens, UniProt P15056)
# T32 construct: purchased Thermo Fisher Scientific SelectScreen (plus Nanosyn / Reaction Biology for CDK/cyclin lines)
# T32 sequence (P15056 whole entry): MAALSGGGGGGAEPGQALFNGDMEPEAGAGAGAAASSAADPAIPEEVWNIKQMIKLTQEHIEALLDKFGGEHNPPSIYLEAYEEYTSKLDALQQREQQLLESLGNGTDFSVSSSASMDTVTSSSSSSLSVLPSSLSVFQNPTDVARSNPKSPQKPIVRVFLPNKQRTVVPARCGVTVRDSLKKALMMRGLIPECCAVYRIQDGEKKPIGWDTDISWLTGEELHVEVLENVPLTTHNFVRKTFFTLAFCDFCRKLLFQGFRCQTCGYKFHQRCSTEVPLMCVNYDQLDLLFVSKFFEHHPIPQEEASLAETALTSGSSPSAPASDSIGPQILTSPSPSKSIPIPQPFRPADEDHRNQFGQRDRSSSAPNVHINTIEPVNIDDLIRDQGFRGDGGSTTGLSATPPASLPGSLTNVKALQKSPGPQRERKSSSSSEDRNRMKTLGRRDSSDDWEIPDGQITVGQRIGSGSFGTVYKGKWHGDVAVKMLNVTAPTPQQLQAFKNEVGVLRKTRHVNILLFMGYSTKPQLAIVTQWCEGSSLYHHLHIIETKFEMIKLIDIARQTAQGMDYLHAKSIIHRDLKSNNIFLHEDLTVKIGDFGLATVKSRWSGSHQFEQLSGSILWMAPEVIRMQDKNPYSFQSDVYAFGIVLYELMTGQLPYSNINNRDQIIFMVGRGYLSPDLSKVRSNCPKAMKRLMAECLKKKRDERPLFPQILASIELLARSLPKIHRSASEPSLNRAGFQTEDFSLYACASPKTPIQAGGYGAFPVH
# Outline: as §1
# BRAF V599E = biological target: T33, BRAF V599E (Homo sapiens, UniProt P15056, V600E)
# T33 construct: purchased Thermo Fisher Scientific SelectScreen (plus Nanosyn / Reaction Biology for CDK/cyclin lines)
# T33 sequence (P15056 whole entry V600E): as the sequence (P15056 whole entry) above, with V600E counted along it
# Outline: as §1
# ADRBK2 (GRK3) = biological target: T34, ADRBK2 (GRK3) (Homo sapiens, UniProt P35626)
# T34 construct: purchased Thermo Fisher Scientific SelectScreen (plus Nanosyn / Reaction Biology for CDK/cyclin lines)
# Outline: as §1
# MKNK1 (MNK1) = biological target: T35, MKNK1 (MNK1) (Homo sapiens, UniProt Q9BUB5)
# T35 construct: purchased Thermo Fisher Scientific SelectScreen (plus Nanosyn / Reaction Biology for CDK/cyclin lines)
# Outline: as §1
# MAP3K8 (COT) = biological target: T36, MAP3K8 (COT) (Homo sapiens, UniProt P41279)
# T36 construct: purchased Thermo Fisher Scientific SelectScreen (plus Nanosyn / Reaction Biology for CDK/cyclin lines)
# Outline: as §1
smiles,measurement,setting,value
NS(=O)(=O)c1ccc(Nc2ncc3cc4n(c3n2)C2(CCCCC2)C(=O)NN4)cc1 [INX-315],inhibition at 0.1 µM,NEK6,1%
same,inhibition at 0.1 µM,RPS6KA4 (MSK2),4%
same,inhibition at 0.1 µM,IGF1R,9%
same,inhibition at 0.1 µM,LYN B,17%
same,inhibition at 0.1 µM,DYRK4,3%
same,inhibition at 0.1 µM,MAPK12 (p38 gamma),9%
same,inhibition at 0.1 µM,RPS6KA3 (RSK2),27%
same,inhibition at 0.1 µM,EGFR (ErbB1) G719S,4%
same,inhibition at 0.1 µM,PLK3,-2%
same,inhibition at 0.1 µM,AMPK (A2/B1/G2),20%
same,inhibition at 0.1 µM,CDC42 BPA (MRCKA),-3%
same,inhibition at 0.1 µM,EGFR (ErbB1) T790M,5%
same,inhibition at 0.1 µM,GSK3B (GSK3 beta),17%
same,inhibition at 0.1 µM,EEF2K,4%
same,inhibition at 0.1 µM,STK22B (TSSK2),-2%
same,inhibition at 0.1 µM,PRKD2 (PKD2),5%
same,inhibition at 0.1 µM,PEAK1,10%
same,inhibition at 0.1 µM,LYN A,6%
same,inhibition at 0.1 µM,DAPK3 (ZIPK),6%
same,inhibition at 0.1 µM,SGK (SGK1),6%
same,inhibition at 0.1 µM,PTK2B (FAK2),5%
same,inhibition at 0.1 µM,RAF1 (cRAF) Y340D Y341D,5%
same,inhibition at 0.1 µM,CSNK1D (CK1 delta),0%
same,inhibition at 0.1 µM,GRK7,62%
same,inhibition at 0.1 µM,PRKG2 (PKG2),-1%
same,inhibition at 0.1 µM,CSF1R (FMS),95%
same,inhibition at 0.1 µM,BLK,11%
same,inhibition at 0.1 µM,JAK2 JH1 JH2 V617F,39%
same,inhibition at 0.1 µM,RET S891A,46%
same,inhibition at 0.1 µM,CDC42 BPG (MRCKG),4%
same,inhibition at 0.1 µM,BMX,22%
same,inhibition at 0.1 µM,BRAF,11%
same,inhibition at 0.1 µM,BRAF V599E,7%
same,inhibition at 0.1 µM,ADRBK2 (GRK3),1%
same,inhibition at 0.1 µM,MKNK1 (MNK1),3%
same,inhibition at 0.1 µM,MAP3K8 (COT),-1%
